Data on 31 molecules can be found in ChEMBL document CHEMBL5726876, “NHE3-binding compounds and methods for inhibiting phosphate transport” (2019).

As a reminder, the pIC50 is the IC50 on a negative log10 scale, so that one unit is a factor of ten.

The nature of the assay: Cell-based activity under Prompt Conditions: Cell-based activity under Prompt Conditions. Rat or human NHE3-mediated Na+-dependent H+ antiport was measured using a modification of the pH sensitive dye method originally reported by Paradiso (PNAS USA. 81:7436-7440, 1984). Opossum kidney (OK) cells were obtained from the ATCC and propagated per their instructions. The rat NHE3 gene (GenBank M85300) or the human NHE3 gene (GenBank NM_004174.1) was introduced into OK cells via electroporation, and cells were seeded into 96 well plates and grown overnight. Medium was aspirated from the wells, cells were washed twice with NaCl-HEPES buffer (100 mM NaCl, 50 mM HEPES, 10 mM glucose, 5 mM KCl, 2 mM CaCl2, 1 mM MgCl2, pH 7.4), then incubated for 30 min at room temperature with NH4Cl-HEPES buffer (20 mM NH4Cl, 80 mM NaCl, 50 mM HEPES, 5 mM KCl, 2 mM CaCl2, 1 mM MgCl2, pH 7.4) containing 5 μM bis(acetoxymethyl) 3,3′-(3′,6′-bis(acetoxymethoxy)-5-((acetoxymethoxy)carbonyl)-3-oxo-3H-spiro[isobenzofuran-1,9′-xanthene]-2′,7′-diyl)dipropanoate (BCECF-AM).Cells were washed twice with Ammonium free, Na+-free HEPES (100 mM choline, 50 mM HEPES, 10 mM glucose, 5 mM KCl, 2 mM CaCl2, 1 mM MgCl2, pH 7.4) and incubated in the same buffer for 10 minutes at room temperature to lower intracellular pH. […] Initial rates were plotted as the average 2 or more replicates, and pIC50 values were estimated using GraphPad Prism.

pIC50: −log10 of the molar value. Where only a bound is given, the exact number is not on record here.

`CN(CC(=O)O)CC(=O)NC(CCC(=O)NCCOCCOCCNS(=O)(=O)c1cccc([C@@H]2CN(C)Cc3c(Cl)cc(Cl)cc32)c1)(CCC(=O)NCCOCCOCCNS(=O)(=O)c1cccc([C@@H]2CN(C)Cc3c(Cl)cc(Cl)cc32)c1)CCC(=O)NCCOCCOCCNS(=O)(=O)c1cccc([C@@H]2CN(C)Cc3c(Cl)cc(Cl)cc32)c1`: the negative-log IC50 (pIC50) was 7.30.
As for `CN(C)[C@H]1Cc2c(Cl)cc(Cl)cc2[C@@H]1Oc1ccc(S(=O)(=O)NCCOCCOCCNC(=O)NCCCCNC(=O)NCCOCCOCCNS(=O)(=O)c2ccc(O[C@H]3c4cc(Cl)cc(Cl)c4C[C@@H]3N(C)C)cc2)cc1`, the figure is 8.20; as for `CNC(=O)NC(CCC(=O)NCCOCCOCCNS(=O)(=O)c1cccc([C@@H]2CN(C)Cc3c(Cl)cc(Cl)cc32)c1)(CCC(=O)NCCOCCOCCNS(=O)(=O)c1cccc([C@@H]2CN(C)Cc3c(Cl)cc(Cl)cc32)c1)CCC(=O)NCCOCCOCCNS(=O)(=O)c1cccc([C@@H]2CN(C)Cc3c(Cl)cc(Cl)cc32)c1`, 6.10; as for `CN1Cc2c(Cl)cc(Cl)cc2[C@H](c2cccc(S(=O)(=O)NCCOCCOCCNC(=O)CCC(CCC(=O)NCCOCCOCCNS(=O)(=O)c3cccc([C@@H]4CN(C)Cc5c(Cl)cc(Cl)cc54)c3)(CCC(=O)NCCOCCOCCNS(=O)(=O)c3cccc([C@@H]4CN(C)Cc5c(Cl)cc(Cl)cc54)c3)NS(C)(=O)=O)c2)C1`, 6.20.
As for `CN1Cc2c(Cl)cc(Cl)cc2[C@H](c2cccc(S(=O)(=O)NCCOCCOCCNC(=O)CCC(CCC(=O)NCCOCCOCCNS(=O)(=O)c3cccc([C@@H]4CN(C)Cc5c(Cl)cc(Cl)cc54)c3)(CCC(=O)NCCOCCOCCNS(=O)(=O)c3cccc([C@@H]4CN(C)Cc5c(Cl)cc(Cl)cc54)c3)NC(=O)CCC(=O)O)c2)C1`, the figure is 7.50.
As for `CN1Cc2c(Cl)cc(Cl)cc2[C@H](c2cccc(S(=O)(=O)N(C)CCOCCOCCNC(=O)CCN(CCC(=O)NCCOCCOCCN(C)S(=O)(=O)c3cccc([C@@H]4CN(C)Cc5c(Cl)cc(Cl)cc54)c3)CCC(=O)NCCOCCOCCN(C)S(=O)(=O)c3cccc([C@@H]4CN(C)Cc5c(Cl)cc(Cl)cc54)c3)c2)C1`, the figure is 6.50.
Regarding `O=C(NCCOCCOCCOCCNS(=O)(=O)c1ccc(O[C@H]2c3ccccc3C[C@@H]2N2CCCCC2)cc1)c1ccc(C(=O)NCCOCCOCCOCCNS(=O)(=O)c2ccc(O[C@H]3c4ccccc4C[C@@H]3N3CCCCC3)cc2)cc1`, the pIC50 is 7.50.
As for `CN(C)[C@H]1Cc2ccc(Cl)cc2[C@@H]1Oc1ccc(S(=O)(=O)NCCOCCOCCNC(=O)NCCCCNC(=O)NCCOCCOCCNS(=O)(=O)c2ccc(O[C@H]3c4cc(Cl)ccc4C[C@@H]3N(C)C)cc2)cc1`, the figure is above 5.00.
As for `CN1Cc2c(Cl)cc(Cl)cc2[C@H](c2cccc(S(=O)(=O)NCCOCCOCCOCCNCc3ccc(-c4ccc(Cl)cc4)cc3)c2)C1`, the figure is above 5.00; as for `CN1Cc2c(Cl)cc(Cl)cc2[C@H](c2cccc(S(=O)(=O)NCCOCCOCCNC(=O)NCCN(CCNC(=O)NCCOCCOCCNS(=O)(=O)c3cccc([C@@H]4CN(C)Cc5c(Cl)cc(Cl)cc54)c3)C(=O)NCCOCCOCCNC(=O)c3ccc(-c4ccc(Cl)cc4)cc3)c2)C1`, 5.80.
As for `CCCCCCCCOc1ccc(CNCCOCCOCCOCCNS(=O)(=O)c2cccc([C@@H]3CN(C)Cc4c(Cl)cc(Cl)cc43)c2)cc1`, the figure is above 5.00.
Turning to `CN1Cc2c(Cl)cc(Cl)cc2[C@H](c2cccc(S(=O)(=O)NCCOCCOCCNC(=O)CCC(CCC(=O)NCCOCCOCCNS(=O)(=O)c3cccc([C@@H]4CN(C)Cc5c(Cl)cc(Cl)cc54)c3)(CCC(=O)NCCOCCOCCNS(=O)(=O)c3cccc([C@@H]4CN(C)Cc5c(Cl)cc(Cl)cc54)c3)NCc3ccc(-c4ccc(Cl)cc4)cc3)c2)C1`, the negative-log IC50 (pIC50) was above 5.00.
As for `CN1Cc2c(Cl)cc(Cl)cc2[C@H](c2cccc(S(=O)(=O)NCCOCCOCCNC(=O)CCC(CCC(=O)NCCOCCOCCNS(=O)(=O)c3cccc([C@@H]4CN(C)Cc5c(Cl)cc(Cl)cc54)c3)(CCC(=O)NCCOCCOCCNS(=O)(=O)c3cccc([C@@H]4CN(C)Cc5c(Cl)cc(Cl)cc54)c3)NC(N)=O)c2)C1`, the figure is 6.50.
As for `O=C(NCCCCNC(=O)NCCOCCOCCNS(=O)(=O)c1ccc(O[C@H]2c3cc(F)ccc3C[C@@H]2N2CCCCC2)cc1)NCCOCCOCCNS(=O)(=O)c1ccc(O[C@H]2c3cc(F)ccc3C[C@@H]2N2CCCCC2)cc1`, the figure is 8.90; as for `CN1Cc2c(Cl)cc(Cl)cc2[C@H](c2cccc(S(=O)(=O)NCCOCCOCCNC(=O)CCC(CCC(=O)NCCOCCOCCNS(=O)(=O)c3cccc([C@@H]4CN(C)Cc5c(Cl)cc(Cl)cc54)c3)(CCC(=O)NCCOCCOCCNS(=O)(=O)c3cccc([C@@H]4CN(C)Cc5c(Cl)cc(Cl)cc54)c3)NC(=O)CCCC(=O)O)c2)C1`, 7.30; as for `CC(C)CCC[C@@H](C)[C@H]1CC[C@H]2[C@@H]3CC=C4C[C@@H](OC(=O)NCCOCCOCCNC(=O)N(CCNC(=O)NCCOCCOCCNS(=O)(=O)c5cccc([C@@H]6CN(C)Cc7c(Cl)cc(Cl)cc76)c5)CCNC(=O)NCCOCCOCCNS(=O)(=O)c5cccc([C@@H]6CN(C)Cc7c(Cl)cc(Cl)cc76)c5)CC[C@]4(C)[C@H]3CC[C@]12C`, above 5.00.
As for `CN1Cc2c(Cl)cc(Cl)cc2[C@H](c2cccc(S(=O)(=O)NCCOCCOCCNC(=O)CN(CCOCCOCCOCCN)CC(=O)NCCOCCOCCNS(=O)(=O)c3cccc([C@@H]4CN(C)Cc5c(Cl)cc(Cl)cc54)c3)c2)C1`, the figure is 7.80; as for `CCN(CCOCCOCCNC(=O)NCCCN(CCCNC(=O)NCCOCCOCCN(CC)S(=O)(=O)c1cccc([C@@H]2CN(C)Cc3c(Cl)cc(Cl)cc32)c1)CCCNC(=O)NCCOCCOCCN(CC)S(=O)(=O)c1cccc([C@@H]2CN(C)Cc3c(Cl)cc(Cl)cc32)c1)S(=O)(=O)c1cccc([C@@H]2CN(C)Cc3c(Cl)cc(Cl)cc32)c1`, 6.00.
For the molecule `CN(C)CC(=O)NC(CCC(=O)NCCOCCOCCNS(=O)(=O)c1cccc([C@@H]2CN(C)Cc3c(Cl)cc(Cl)cc32)c1)(CCC(=O)NCCOCCOCCNS(=O)(=O)c1cccc([C@@H]2CN(C)Cc3c(Cl)cc(Cl)cc32)c1)CCC(=O)NCCOCCOCCNS(=O)(=O)c1cccc([C@@H]2CN(C)Cc3c(Cl)cc(Cl)cc32)c1`, the negative-log IC50 (pIC50) was 7.10.
As for `CN(C)[C@H]1Cc2ccc(F)cc2[C@@H]1Oc1ccc(S(=O)(=O)NCCOCCOCCNC(=O)NCCCCNC(=O)NCCOCCOCCNS(=O)(=O)c2ccc(O[C@H]3c4cc(F)ccc4C[C@@H]3N(C)C)cc2)cc1`, the figure is above 5.00; as for `CN1Cc2c(Cl)cc(Cl)cc2[C@H](c2cccc(S(=O)(=O)NCCOCCOCCNC(=O)CCC(CCC(=O)NCCOCCOCCNS(=O)(=O)c3cccc([C@@H]4CN(C)Cc5c(Cl)cc(Cl)cc54)c3)(CCC(=O)NCCOCCOCCNS(=O)(=O)c3cccc([C@@H]4CN(C)Cc5c(Cl)cc(Cl)cc54)c3)NC(=O)N(C)C)c2)C1`, 5.60; as for `CC(C)CCC[C@@H](C)[C@H]1CC[C@H]2[C@@H]3CC=C4C[C@@H](OC(=O)NCCOCCOCCOCCNS(=O)(=O)c5cccc([C@@H]6CN(C)Cc7c(Cl)cc(Cl)cc76)c5)CC[C@]4(C)[C@H]3CC[C@]12C`, above 5.00.
As for `CN(C)[C@H]1Cc2ccccc2[C@@H]1Oc1ccc(S(=O)(=O)NCCOCCOCCNC(=O)NCCCCNC(=O)NCCOCCOCCNS(=O)(=O)c2ccc(O[C@H]3c4ccccc4C[C@@H]3N(C)C)cc2)cc1`, the figure is above 5.00; as for `CC(C)(C(=O)NCCOCCOCCOCCNS(=O)(=O)c1ccc(O[C@H]2c3ccccc3C[C@@H]2N2CCCCC2)cc1)C(=O)NCCOCCOCCOCCNS(=O)(=O)c1ccc(O[C@H]2c3ccccc3C[C@@H]2N2CCCCC2)cc1`, 8.70; as for `O=C(NCCOCCOCCOCCNS(=O)(=O)c1ccc(O[C@H]2c3ccccc3C[C@@H]2N2CCCCC2)cc1)c1cccc(C(=O)NCCOCCOCCOCCNS(=O)(=O)c2ccc(O[C@H]3c4ccccc4C[C@@H]3N3CCCCC3)cc2)c1`, 7.40.
As for `N[C@@H]1CCCN([C@H]2Cc3c(Cl)cc(Cl)cc3[C@@H]2Oc2ccc(S(=O)(=O)NCCOCCOCCNC(=O)NCCCCNC(=O)NCCOCCOCCNS(=O)(=O)c3ccc(O[C@H]4c5cc(Cl)cc(Cl)c5C[C@@H]4N4CCC[C@@H](N)C4)cc3)cc2)C1`, the figure is 7.40; as for `CN1Cc2c(Cl)cc(Cl)cc2[C@H](c2cccc(S(=O)(=O)NCCOCCOCCNC(=O)CCC(CCC(=O)NCCOCCOCCNS(=O)(=O)c3cccc([C@@H]4CN(C)Cc5c(Cl)cc(Cl)cc54)c3)(CCC(=O)NCCOCCOCCNS(=O)(=O)c3cccc([C@@H]4CN(C)Cc5c(Cl)cc(Cl)cc54)c3)NC(=O)COCC(=O)O)c2)C1`, 7.60.
Consider `O=C(NCCCCNC(=O)NCCOCCOCCNC(=O)Nc1cccc(O[C@H]2c3ccccc3C[C@@H]2N2CCCCC2)c1)NCCOCCOCCNC(=O)Nc1cccc(O[C@H]2c3ccccc3C[C@@H]2N2CCCCC2)c1`, for which the pIC50 is above 5.00.
On to `CN1Cc2c(Cl)cc(Cl)cc2[C@H](c2cccc(S(=O)(=O)NCCOCCOCCOCCNC(=O)CCC(CCC(=O)NCCOCCOCCOCCNS(=O)(=O)c3cccc([C@@H]4CN(C)Cc5c(Cl)cc(Cl)cc54)c3)(CCC(=O)NCCOCCOCCOCCNS(=O)(=O)c3cccc([C@@H]4CN(C)Cc5c(Cl)cc(Cl)cc54)c3)NCc3ccc(-c4ccc(Cl)cc4)cc3)c2)C1`, for which the pIC50 was above 5.00.
For `CN1Cc2c(Cl)cc(Cl)cc2[C@H](c2cccc(S(=O)(=O)NCCOCCOCCNC(=O)CCC(CCC(=O)NCCOCCOCCNS(=O)(=O)c3cccc([C@@H]4CN(C)Cc5c(Cl)cc(Cl)cc54)c3)(CCC(=O)NCCOCCOCCNS(=O)(=O)c3cccc([C@@H]4CCN(C)c5c(Cl)cc(Cl)cc54)c3)NC(=O)[C@H]3CCCC[C@@H]3C(=O)O)c2)C1`, the pIC50 is 6.90.
For the molecule `CN1Cc2c(Cl)cc(Cl)cc2C(c2cccc(S(=O)(=O)NCCOCCOCCNC(=O)CCC(CCC(=O)NCCOCCOCCNS(=O)(=O)c3cccc([C@@H]4CN(C)Cc5c(Cl)cc(Cl)cc54)c3)(CCC(=O)NCCOCCOCCNS(=O)(=O)c3cccc([C@@H]4CN(C)Cc5c(Cl)cc(Cl)cc54)c3)N(C)C)c2)C1` (stereo partly specified), the negative-log IC50 (pIC50) was 7.17.
